Five molecules from patent publication US10935546B2, “Fluorescent AMP-kinase biosensors” (Universite Grenoble Alpes, priority 2015, dated 2021) can be followed below.

A short description of test [1]: FRET signal variation of AMPfret constructs upon AMP/ADP binding. The settings on record: 3 mM ATP vs 20 μM AMP (FIG. 2). The source says: Top: Schema showing structural organization of the sensors. CFP and YFP are respectively represented as hatched- and dotted-circles. (a) Fluorescence emission spectra of AMPfret constructs excited at 430 nm. […] Data correspond to mean±SEM (AMPfret A: n=7; AMPfret C: n=10).
Second generation of AMPfret constructs 1.1 and 2.1. based on constructs AMPfret C and A, respectively. Top: Schema showing structural organization of the sensors. Both optimized constructs contain mseCFPΔ11/cpVenus as GFP-derived fluorescent couple instead of CFP/YFP. mseCFPΔ11 and cpVenus are respectively represented as hatched- and checkered circles. […] (a) Fluorescence emission spectra of AMPfret constructs excited at 430 nm. […] Data correspond to mean±SEM (AMPfret 1.0: n=10; AMPfret 1.1: n=7); *=p<0.001 (significance assessed by a Student-Newman-Keuls test).
FRET assay: FRET signal variation in presence of different compounds (nucleotides, chemicals, ions) was measured using a fluorimeter (Photon Technology International). […] Effects of nucleotides and others compounds (previously prepared in the spectro buffer) on the FRET ratio given by AMPfret sensor was determined by comparing FRET ratio (peak value at 527 nm/peak value at 476 nm) in presence or absence of the compounds. Excitation wavelength was set to 430 nm, and emission spectra were recorded from 450 to 600 nm with an integration time of 0.2 s. […]

The next test has as its target T1, AMPfret 2.1 (UniProt O43741+P80385+Q09137).
T1 construct: decaHis tag with TEV site (N); made in house; host or cells: E. coli BL21 (DE3) Star
Briefly: FRET assay with purified AMPfret 2.1 sensor (fluorimeter). It is filed as binding, rat α2 and γ1, human β2. The settings on record: 50 μM A-769662 or 500 μM Metformin, compared with 20 μM AMP (FIG. 6). As for the experimental part: The FRET ratio was calculated from fluorescence emission spectra excited at 430 nm. Data points correspond to mean±SEM (n>3).
Structure and names of the molecules are given below the bars.
FRET assay: FRET signal variation in presence of different compounds (nucleotides, chemicals, ions) was measured using a fluorimeter (Photon Technology International). AMPfret constructs (20 pmol) were incubated in a quartz cuvette in a final volume of 150 μL (spectro buffer: 50 mM Tris pH8, 200 mM NaCl, 5 mM MgCl2, 2 mM β-mercaptoethanol). Effects of nucleotides and others compounds (previously prepared in the spectro buffer) on the FRET ratio given by AMPfret sensor was determined by comparing FRET ratio (peak value at 527 nm/peak value at 476 nm) in presence or absence of the compounds. Excitation wavelength was set to 430 nm, and emission spectra were recorded from 450 to 600 nm with an integration time of 0.2 s. Mg^2+ effect on FRET was investigated in spectro buffer without Mg^2+.

Test [2] concerns AMPfret 2.1 in 3T3-L1 or HeLa cells. To be noted: 1 mM AICAR. As for the experimental part:
HeLa cells transfected with AMPFret 2.1 were exposed for 60 min to 1 mM AICAR. […] (b) Time course of the FRET signal. […] (c) AMPK activation at t=0 min and t=60 min. Phosphorylation of the AMPK substrate ACC as determined by immunoblotting (lower panel) and quantification of the resulting P-ACC/total ACC ratio (upper panel). P-ACC/total ACC ratios at t=0 and t=60 min are respectively represented as a white dotted bar and black dotted bar. Data correspond to mean±SEM (n=3).
For cellular ex vivo experiments, subunits of the optimized construct AMPfret 2.1 were cloned in the vectors (pACEMam2, pMDS and pMDK) of the MultiMam expression system. Created plasmids were fused via their Lox-P site to yield to a single mammalian expression vector coding for the sensor AMPFret 2.1 according to well-known techniques to the skilled man in the art.
3T3-L1 and HeLa cells were cultivated in glucose containing DMEM (4.5 g/L) supplemented with SVF, glutamine, penicillin and streptomycin. Once cells reached around 80% confluence, medium was replaced by OptiMEM (Lifetechnologies) and AMPfret 2.1 coding plasmid was transfected using Lipofectamine2000 (Lifetechnologies). After 5 h, OptiMEM was exchanged by complete DMEM and cells grew for >36 h until their observations under the confocal microscope.
LabTek plates were placed in an incubation chamber in which the temperature and O2 concentration were maintained at 37° C. and 21%, respectively. Without moving the Labtek, 200 μL medium was replaced by the same volume of complete medium containing 2 mM AICAR (1 mM final). Excitation wavelength was set to 458 nm and emission spectra showing FRET signal were monitored through A scans from 463 nm to 600 nm every 15 min. ROI (region of interest) were drawn in order to cover entire cells. FRET ratio variations were calculated from those measured emission spectra.
AMPfret 2.1 was excited using a 458 nm laser and emission spectra showing FRET signal were monitored through A scans from 463 nm to 600 nm every 15 min.

T1 sequence (Q09137 1-550): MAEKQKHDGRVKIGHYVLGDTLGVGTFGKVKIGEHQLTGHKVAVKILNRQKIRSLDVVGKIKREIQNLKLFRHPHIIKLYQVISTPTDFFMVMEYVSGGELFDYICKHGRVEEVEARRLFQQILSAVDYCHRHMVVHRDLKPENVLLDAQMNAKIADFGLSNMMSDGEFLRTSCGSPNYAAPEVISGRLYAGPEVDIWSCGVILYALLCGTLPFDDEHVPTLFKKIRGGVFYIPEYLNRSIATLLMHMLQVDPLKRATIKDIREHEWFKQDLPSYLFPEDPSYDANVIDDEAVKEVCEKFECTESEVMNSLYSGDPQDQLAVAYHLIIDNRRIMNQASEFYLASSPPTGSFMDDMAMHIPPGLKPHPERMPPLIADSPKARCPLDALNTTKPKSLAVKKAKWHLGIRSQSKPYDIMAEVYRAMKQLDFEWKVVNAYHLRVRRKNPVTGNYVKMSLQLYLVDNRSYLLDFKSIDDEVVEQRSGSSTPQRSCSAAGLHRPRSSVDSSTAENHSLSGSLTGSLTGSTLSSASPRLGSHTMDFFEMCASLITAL
T1 sequence (O43741 1-269): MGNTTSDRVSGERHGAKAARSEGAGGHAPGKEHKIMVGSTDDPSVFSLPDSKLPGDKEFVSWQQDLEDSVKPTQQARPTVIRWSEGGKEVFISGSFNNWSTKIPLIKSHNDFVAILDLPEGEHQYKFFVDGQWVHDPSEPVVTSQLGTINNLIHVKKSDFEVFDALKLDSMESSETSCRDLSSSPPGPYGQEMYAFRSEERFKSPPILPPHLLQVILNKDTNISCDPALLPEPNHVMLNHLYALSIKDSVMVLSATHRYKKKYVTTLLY
T1 sequence (P80385 whole entry): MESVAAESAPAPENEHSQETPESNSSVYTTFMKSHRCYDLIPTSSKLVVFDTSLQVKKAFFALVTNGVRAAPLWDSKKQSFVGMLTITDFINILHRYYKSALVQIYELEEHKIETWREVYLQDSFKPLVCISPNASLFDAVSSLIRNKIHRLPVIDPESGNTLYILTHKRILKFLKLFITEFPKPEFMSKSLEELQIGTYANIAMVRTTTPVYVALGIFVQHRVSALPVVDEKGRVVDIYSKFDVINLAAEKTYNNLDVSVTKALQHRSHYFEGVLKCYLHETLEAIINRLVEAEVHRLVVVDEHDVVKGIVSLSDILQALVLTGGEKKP

In the case of “AMPfret C: AMPK heterotrimer: rat alpha2-CFP (SEQ ID NO:5), human beta2 (SEQ ID NO:9), rat gamma1-YFP (SEQ ID NO:21)”, in test [1], the “difference in FRET signal depending on the presence of AMP or ADP” value is recorded as roughly 10%.
Turning to `N#Cc1c(O)c2c(-c3ccc(-c4ccccc4O)cc3)csc2[nH]c1=O` [A-769662], the “FRET signal induced in AMPfret in vitro” value at AMPfret 2.1 is on record as “induces a FRET signal comparable to AMP”.
Take `CN(C)C(=N)N=C(N)N` [Metformin]: the “FRET signal induced in AMPfret in vitro” value on AMPfret 2.1 is listed as “did not induce any FRET variation”.
On to “AMPfret A: AMPK heterotrimer: rat alpha2-CFP (SEQ ID NO:5), human beta2-YFP (SEQ ID NO:11), rat gamma1 (SEQ ID NO:15)”, for which the “difference in FRET signal depending on the presence of AMP or ADP” value in test [1] was roughly 10%.
Consider `NC(=O)c1ncn([C@@H]2O[C@H](CO)[C@@H](O)[C@H]2O)c1N` [AICAR, 5′-Aminoimidazole-4-carboxamide ribonucleoside], for which the “time to maximal effect on FRET signal” value in test [2] is on record as “about 30 minutes”. The “AMPfret 2.1 FRET signal upon AICAR addition” value in test [2] (60 min, read every 15 min, HeLa and 3T3-L1 cells) is “increased with time”. The “FRET response after 15 min of treatment” value in test [2] (15 min) is “More than half-maximal response”. In test [2] (HeLa cells transfected with AMPFret 2.1, 0, 15, 30 min), the “cpVenus peak (527 nm) in fluorescence emission spectra over time” value is “increase of cpVenus peak”.
